Experimental data: ChEMBL document CHEMBL5729738, “Inhibitors of RAF kinases” (2023)

Biological target: RAF proto-oncogene serine/threonine-protein kinase (Homo sapiens, UniProt P04049)
Assay: Kinase Assay: Protein kinase assay: Assay platform was used to measure kinase/inhibitor interactions as described previously (Anastassiadis et al., 2011). In brief, for each reaction, kinase and substrate were mixed in a buffer containing 20 mM HEPES (pH 7.5), 10 mM MgCl2, 1 mM EGTA, 0.02% Brij35, 0.02 mg/mL BSA, 0.1 mM Na3VO4, 2 mM DTT, and 1% DMSO. All compounds were solubilized in DMSO. Compounds were then added to each reaction mixture via acoustic dispense using an ECHO 550 nanoliter dispenser. For human RAF1 testing, human MEK1 (K97R) was used as a substrate at a concentration of 3 micromolar, with a final ATP concentration of 10 micromolar. For human BRAF testing, human MEK1 (K97R) was used as a substrate at 1 micromolar concentration, with a final ATP concentration of 25 micromolar. […] After a 20-min incubation, ATP (Sigma-Aldrich, St. Louis, Mo. 63178) and [g33P] ATP (specific activity 10 microCi/microliter) purchased at PerkinElmer (Boston, Mass., 02118 Cat #BLU 003H250UC) were added at a final total concentration of 10 mM. Reactions were carried out at room temperature for 2 hr and spotted onto P81 ion exchange cellulose chromatography paper (Reaction Biology). Filter paper was washed in 0.75% phosphoric acid to remove unincorporated ATP. The percent remaining kinase activity relative to a vehicle-containing (DMSO) kinase reaction was calculated for each kinase/inhibitor pair. […]

Sequence of RAF proto-oncogene serine/threonine-protein kinase (P04049 whole entry): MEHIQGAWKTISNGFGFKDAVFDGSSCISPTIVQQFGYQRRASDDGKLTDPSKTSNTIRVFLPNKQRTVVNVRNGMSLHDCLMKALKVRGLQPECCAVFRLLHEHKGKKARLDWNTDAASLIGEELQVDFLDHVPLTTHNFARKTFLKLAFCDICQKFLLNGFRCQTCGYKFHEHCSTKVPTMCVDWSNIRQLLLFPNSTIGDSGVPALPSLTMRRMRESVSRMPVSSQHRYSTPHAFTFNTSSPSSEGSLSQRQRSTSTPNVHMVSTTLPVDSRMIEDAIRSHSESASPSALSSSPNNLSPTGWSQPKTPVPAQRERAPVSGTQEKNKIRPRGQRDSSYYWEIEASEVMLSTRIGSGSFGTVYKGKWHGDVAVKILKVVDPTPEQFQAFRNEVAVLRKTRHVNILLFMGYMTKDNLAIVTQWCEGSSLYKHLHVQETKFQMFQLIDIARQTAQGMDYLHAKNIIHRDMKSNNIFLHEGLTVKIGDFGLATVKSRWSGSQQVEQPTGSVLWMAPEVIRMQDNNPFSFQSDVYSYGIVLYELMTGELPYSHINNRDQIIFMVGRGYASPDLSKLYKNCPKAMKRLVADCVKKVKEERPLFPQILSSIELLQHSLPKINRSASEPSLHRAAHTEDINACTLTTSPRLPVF

Molecule CNc1ncc2cc(-c3cc(NC(=O)N4CC[C@H](C(F)(F)F)C4)c(F)cc3C)c(C)nc2n1 has an IC50 of less than 10 nM.
